Experimental data from patent publication US9340493B2, “Hydroxamic acid derivatives useful as antibacterial agents” (Pfizer Inc., priority 2008, dated 2016).
In brackets after ≈: the same amount, converted by molar mass.

Columns and labels:
[1] = system: P. aeruginosa PAO280; assay: MIC determination, P. aeruginosa PAO280; assay type: cell-based; details: Pseudomonas aeruginosa, PAO280, read-out: MIC (ug/mL) P. aeruginosa PAO280
Protocol: (§1) MIC determinations: The in vitro antibacterial activity of compounds described in the Examples was evaluated by minimum inhibitory concentration (MIC) testing according to Clinical and Laboratory Standards Institute (CLSI, formerly NCCLS) guidelines. See: Clinical and Laboratory Standards Institute. Methods for Dilution Antimicrobial Susceptibility Tests for Bacteria that Grow Aerobically; Approved Standard-Seventh Edition. CLSI document M7-A7 [ISBN 1-56238-587-9]. Clinical and Laboratory Standards Institute, 940 West Valley Road, Suite 1400, Wayne, Pa. 19087-1898 USA, 2006; also Clinical and Laboratory Standards Institute. Performance Standards for Antimicrobial Susceptibility Testing; Eighteenth Informational Supplement. CLSI document M100-S18 [ISBN1-56238-653-0]. Clinical and Laboratory Standards Institute.
(§2) The following bacterial strains were used:
Pseudomonas aeruginosa PA0280: lacks efflux pumps MexAB-oprM, MexXY and MexZ

[2] = system: Enterobacter aerogenes; assay: MIC determination, E. aerogenes; assay type: cell-based; details: Klebsiella aerogenes; quinolone-resistant, ESBL-expressing clinical isolate; * = arithmetic mean of 2-6 MIC determinations; read-out: MIC (ug/mL) E. aerogenes
Protocol: as §1, §2
Enterobacter aerogenes: Quinolone-resistant isolate, expresses extended-spectrum beta-lactamases (ESBL), clinical isolate;

[3] = system: P. aeruginosa UI-18; assay: MIC determination, P. aeruginosa UI-18; assay type: cell-based; details: Pseudomonas aeruginosa, UI18; wild-type; * = arithmetic mean of 2-6 MIC determinations; read-out: MIC (ug/mL) P. aeruginosa UI-18
Protocol: as §1, §2
P. aeruginosa UI-18: Wild-type;

[4] = system: Acinetobacter baumanii/haemolyticus; assay: MIC determination, A. baumanii/haemolyticus; assay type: cell-based; details: Acinetobacter baumannii; multidrug-resistant clinical isolate; * = arithmetic mean of 2-6 MIC determinations; read-out: MIC (ug/mL) A. baumanii/haemolyticus
Protocol: as §1, §2
Acinetobacter baumanii/haemolyticus: Multidrug-resistant clinical isolate;

[5] = system: Escherichia coli EC-1; assay: MIC determination, E. coli EC-1; assay type: cell-based; details: EC1, EC-1: VOGEL, * = arithmetic mean of 2-6 MIC determinations, read-out: MIC (ug/mL) E. coli EC-1
Protocol: as §1, §2
Escherichia coli EC-1: VOGEL;

[6] = system: Klebsiella pneumoniae; assay: MIC determination, K. pneumoniae; assay type: cell-based; details: ciprofloxacin-resistant, ESBL-expressing clinical isolate, * = arithmetic mean of 2-6 MIC determinations, read-out: MIC (ug/mL) K. pneumoniae
Protocol: as §1, §2
Klebsiella pneumoniae: Ciprofloxacin-resistant isolate, expresses extended-spectrum beta-lactamases (ESBL), clinical isolate;

[7] = target: T1, Pseudomonas aeruginosa LpxC enzyme (Pseudomonas aeruginosa, UniProt P47205); assay: IC50 assay, LpxC enzyme from P. aeruginosa; assay type: biochemical; details: 0.5 nM enzyme, 25° C., pH 8.0, 20 min; ** = average of 2-8 assays
T1 construct: made in house; host or cells: E. coli
T1 sequence (P47205 1-303): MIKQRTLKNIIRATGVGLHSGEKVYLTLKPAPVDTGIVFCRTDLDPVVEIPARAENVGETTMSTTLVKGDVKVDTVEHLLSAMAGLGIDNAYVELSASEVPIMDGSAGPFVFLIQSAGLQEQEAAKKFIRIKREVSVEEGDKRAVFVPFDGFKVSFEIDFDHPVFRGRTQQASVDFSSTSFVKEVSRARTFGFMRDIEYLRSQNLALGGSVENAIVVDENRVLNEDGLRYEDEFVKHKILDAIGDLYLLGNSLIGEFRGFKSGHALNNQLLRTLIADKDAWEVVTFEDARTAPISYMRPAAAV
Protocol: IC50 assay, LpxC enzyme from P. aeruginosa: IC50 determination in the LpxC enzyme assay was carried out in a similar manner to that described by S. A. Hyland et al., J. Bacteriology 1997, 179, 2029-2037. [See also T. Kline et al., J. Medicinal Chemistry 2002, 45, 3112-3129.] Briefly, Pseudomonas aeruginosa LpxC enzyme (0.5 nM) purified from E. coli-overexpressing bacteria was incubated at 25° C. in a final volume of 25 ul containing 0.5 uM UDP-3-O—(R-3-hydroxydecanoyl)-N—[^3H-acetyl]glucosamine (B. D. Maxwell and J. C. Bronstein, J. Labeled Compounds and Radiopharmaceuticals 2005, 48, 1049-1054), 1 mg/ml BSA, and 50 mM sodium phosphate buffer, pH 8.0 in the presence and absence of inhibitor compound. At the end of 20 min, 90 ul of a pre-mixed 3% suspension of activated charcoal in 100 mM sodium acetate, pH 7.5, was added to stop the enzyme reaction. The contents of the well were transferred to a filter plate and filtered, and an aliquot of the filtrate was quantitated by liquid scintillation spectrometry. A no-enzyme control was subtracted in order to eliminate background counts.

[8] = system: Staphylococcus aureus ATCC 29213; assay: MIC determination, S. aureus ATCC 29213; assay type: cell-based; details: ATCC29213, CLSI quality control reference strain, * = arithmetic mean of 2-6 MIC determinations, read-out: MIC (ug/mL) S. aureus ATCC 29213
Protocol: as §1, §2
Staphylococcus aureus ATCC 29213: CLSI quality control reference strain; and […]

## CCCc1ccc(-c2ccc(CO[C@](C)(C(=O)NO)[C@@H](O)c3cc(C)on3)cc2)cc1 [Example 30, (2S,3S)-N,3-dihydroxy-2-methyl-3-(5-methylisoxazol-3-yl)-2-[(4′-propylbiphenyl-4-yl)methoxy]propanamide]
[1]
  MIC: 1 µg/mL (≈ 2.36 µM)
[2]
  MIC: 16 µg/mL (≈ 37.7 µM)
[3]
  MIC: 4 µg/mL (≈ 9.42 µM)
[4]
  MIC: 2 µg/mL (≈ 4.71 µM)
[5]
  MIC: 2 µg/mL (≈ 4.71 µM)
[6]
  MIC: 4 µg/mL (≈ 9.42 µM)
[7]
  IC50: 0.000762 µM
[8]
  MIC: 32 µg/mL (≈ 75.4 µM)

## C[C@@](OCc1ccc(-c2ccccc2)cc1)(C(=O)NO)[C@@H](O)c1ccon1 [Example 31, (2S,3S)-2-(biphenyl-4-ylmethoxy)-N,3-dihydroxy-3-isoxazol-3-yl-2-methylpropanamide]
[1]
  MIC: 0.06 µg/mL (≈ 0.163 µM)
[2]
  MIC: > 64 µg/mL
[3]
  MIC: 6 µg/mL (≈ 16.3 µM)
[4]
  MIC: 32 µg/mL (≈ 86.9 µM)
[5]
  MIC: 16 µg/mL (≈ 43.4 µM)
[6]
  MIC: 48 µg/mL (≈ 130 µM)
[7]
  IC50: 0.000406 µM
[8]
  MIC: > 64 µg/mL

## Cc1ccc(-c2ccc(CO[C@](C)(C(=O)NO)[C@@H](O)c3cc(C)on3)cc2)nc1 [Example 32, (2S,3S)-N,3-dihydroxy-2-methyl-3-(5-methylisoxazol-3-yl)-2-{[4-(5-methylpyridin-2-yl)benzyl]oxy}propanamide]
[1]
  MIC: 0.06 µg/mL (≈ 0.151 µM)
[2]
  MIC: > 64 µg/mL
[3]
  MIC: 8 µg/mL (≈ 20.1 µM)
[4]
  MIC: > 64 µg/mL
[5]
  MIC: 32 µg/mL (≈ 80.5 µM)
[6]
  MIC: 64 µg/mL (≈ 161 µM)
[7]
  IC50: 0.000286 µM
[8]
  MIC: > 64 µg/mL

## C[C@@](OCc1ccc(-c2ccccc2)cc1)(C(=O)NO)[C@@H](O)c1ncco1 [Example 33, (2S,3R)-2-(biphenyl-4-ylmethoxy)-N,3-dihydroxy-2-methyl-3-(1,3-oxazol-2-yl)propanamide]
[1]
  MIC: 0.25 µg/mL (≈ 0.679 µM)
[2]
  MIC: > 64 µg/mL
[3]
  MIC: 8 µg/mL (≈ 21.7 µM)
[4]
  MIC: > 64 µg/mL
[5]
  MIC: 64 µg/mL (≈ 174 µM)
[6]
  MIC: > 64 µg/mL
[7]
  IC50: 0.00323 µM
[8]
  MIC: > 64 µg/mL

## C[C@@](OCc1ccc(-c2ccccc2)cc1)(C(=O)NO)[C@@H](O)c1cc(CO)on1 [Example 34, (2S,3S)-2-(biphenyl-4-ylmethoxy)-N,3-dihydroxy-3-[5-(hydroxymethyl)isoxazol-3-yl]-2-methylpropanamide]
[1]
  MIC: 0.023 µg/mL (≈ 0.0577 µM)
[2]
  MIC: > 64 µg/mL
[3]
  MIC: 1.25 µg/mL (≈ 3.14 µM)
[4]
  MIC: 64 µg/mL (≈ 161 µM)
[5]
  MIC: 28 µg/mL (≈ 70.3 µM)
[6]
  MIC: 64 µg/mL (≈ 161 µM)
[7]
  IC50: 0.000579 µM
[8]
  MIC: > 64 µg/mL

## C[C@@](OCc1ccc(-c2ccc(F)cc2)cc1)(C(=O)NO)[C@@H](O)c1cc(CO)on1 [Example 35, (2S,3S)-2-[(4′-fluorobiphenyl-4-yl)methoxy]-N,3-dihydroxy-3-[5-(hydroxymethyl)isoxazol-3-yl]-2-methylpropanamide]
[1]
  MIC: 0.03 µg/mL (≈ 0.072 µM)
[2]
  MIC: > 64 µg/mL
[3]
  MIC: 1 µg/mL (≈ 2.4 µM)
[4]
  MIC: 64 µg/mL (≈ 154 µM)
[5]
  MIC: 23 µg/mL (≈ 55.2 µM)
[6]
  MIC: 53 µg/mL (≈ 127 µM)
[7]
  IC50: 0.000695 µM
[8]
  MIC: > 64 µg/mL

## CCc1ccc(-c2ccc(CO[C@](C)(C(=O)NO)[C@@H](O)c3cc(CO)on3)cc2)cc1 [Example 36, (2S,3S)-2-[(4′-ethylbiphenyl-4-yl)methoxy]-N,3-dihydroxy-4-[5-(hydroxymethyl)isoxazol-3-yl]-2-methylpropanamide]
[1]
  MIC: 0.03 µg/mL (≈ 0.0703 µM)
[2]
  MIC: 64 µg/mL (≈ 150 µM)
[3]
  MIC: 1 µg/mL (≈ 2.34 µM)
[4]
  MIC: 32 µg/mL (≈ 75 µM)
[5]
  MIC: 4 µg/mL (≈ 9.38 µM)
[6]
  MIC: 16 µg/mL (≈ 37.5 µM)
[7]
  IC50: 0.000244 µM
[8]
  MIC: 64 µg/mL (≈ 150 µM)
